Experiment: solubility in the mobile phase (isopropanol)
Assay type: physicochemical
Details: organic solvent or mixture; crude material; isopropanol as the mobile phase
Description: Racemic zopiclone was subjected to preparative chromatography using Chiralcel® OD as the stationery phase and isopropanol as the mobile phase. Under these conditions the crude material has a good solubility in the mobile phase (>1.0 g/liter) and the typical retention time for the R-isomer is 12.3 minutes and for the S-isomer is 17.8 minutes. Some physico-chemical properties of the S-zopiclone obtained are set out in table 1.

In the case of `CN1CCN(C(=O)OC2c3nccnc3C(=O)N2c2ccc(Cl)cn2)CC1` (racemic) [Racemic zopiclone, (±) of 6-(5-chloro-2-pyridinyl)-6,7-dihydro-7-oxo-5H-pyrrolo-[3,4b]-pyrazin-5-yl-4-methylpiperazine-1-caboxylate], the solubility is reported as > 1000 µg/mL.

— patent US20080182848A1, “Novel Process” (priority 2005, published 2008)
